Laboratory results reported in patent US6706716B2, “Compounds specific for the human α1d adrenergic receptor and uses thereof” (Synaptic Pharmaceutical Corporation, priority 1998, dated 2004).

Columns and labels:
[1] = system: conscious, normotensive rats; test: Mean arterial blood pressure in conscious, normotensive rats; assay type: in vivo, rat; conditions: 4.0 mg/kg i.v., 0-60 min
Method: Rats were anesthetized and a PE50 chronic indwelling cannula was placed in the abdominal aorta for measurement of blood pressure. On the following day, 5 rats each were administered vehicle (1% DMSO) or Compound 7 (4.0 mg/kg in 1% DMSO, i.v.) and mean blood pressure measurements were recorded at 0, 5, 30, and 60 minutes thereafter.

α1D adrenergic receptor = target: T1, α1D adrenergic receptor (Rattus norvegicus, UniProt P23944); test: Isolated tissue functional assay, thoracic aorta (phenylephrine induced contraction)
T1 construct: from tissue; host or cells: rat thoracic aorta strips
T1 sequence (P23944 1-561): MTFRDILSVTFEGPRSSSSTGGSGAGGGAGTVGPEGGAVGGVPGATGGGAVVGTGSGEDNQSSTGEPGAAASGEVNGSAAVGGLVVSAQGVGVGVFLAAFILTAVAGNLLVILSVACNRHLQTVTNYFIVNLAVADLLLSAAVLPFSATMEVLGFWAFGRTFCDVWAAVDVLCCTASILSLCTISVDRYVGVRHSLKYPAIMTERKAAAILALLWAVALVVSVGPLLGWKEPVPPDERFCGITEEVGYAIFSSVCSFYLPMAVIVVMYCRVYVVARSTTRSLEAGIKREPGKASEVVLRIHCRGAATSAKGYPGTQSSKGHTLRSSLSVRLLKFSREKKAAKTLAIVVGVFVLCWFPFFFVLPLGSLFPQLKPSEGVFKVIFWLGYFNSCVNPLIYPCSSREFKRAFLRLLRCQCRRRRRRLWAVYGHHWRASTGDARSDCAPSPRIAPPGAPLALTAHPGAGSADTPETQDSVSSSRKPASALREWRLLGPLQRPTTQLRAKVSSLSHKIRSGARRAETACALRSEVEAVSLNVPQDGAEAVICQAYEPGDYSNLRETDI
Method: The functional in vitro activity of Compound 7 was characterized in several pharmacologically defined α1 adrenoceptor subtype isolated tissue assays (Aboud et al., 1993). (Rat epididymal vas deferens was used to determine α1A functional responses, spleen was used for α1B responses, and thoracic aorta was used for α1D responses.) Experiments were carried out according to the method of Deng et al., 1996, with minor buffer and tissue setup tension modifications. Krebs additionally contained 0.1 μM desipramine and 10 μM corticosterone to block neuronal and extra neuronal uptake, respectively, and 0.3 μM idazoxan to eliminate α2 mediated responses. Aorta and vas deferens strips were set at 0.5 g resting tension, and the splenic preparations were tensioned to 1 g. All preparations were equilibrated for 1 hr before the addition of drugs.
Additionally, its antagonist potency was determined by its ability to antagonize phenylephrine (PE) induced contraction in each of these preparations. The degree of shift of the PE agonist dose response-curve in the presence of Compound 7 was measured and pKB values were calculated (mean±s.e.m.).

## O=C1CC2(CCCC2)CC(=O)N1CCN1CCN(c2cc(F)c(F)cc2F)CC1 [Compound 7, 8-{2-[4-(2,4,5-Trifluorophenyl)piperazin-1-yl]ethyl}-8-azaspiro[4.5]decane-7,9-dione]
[1]
  effect on mean blood pressure: no reduction in blood pressure
α1D adrenergic receptor; concentrations up to 10 μM, rat thoracic aorta (α1D model)
  agonist activity: failed to produce agonist activity
α1D adrenergic receptor; rat thoracic aorta (α1D), mean±s.e.m., read-out: pKB (antagonism of phenylephrine induced contraction) (converted)
  Kb: 3.16 nM
